{"source": "paper PMC5581232", "about": "(European journal of medicinal chemistry, 2017)", "key": {"[1]": {"system": "HBV", "assay": "Anti-HBV activity: HBV DNA replication", "type": "cell-based, Hepatitis B virus", "conditions": "for Anti-HBV activity (in words): HepAD38 cells"}, "[2]": {"system": "HBeAg secretion (HBV cccDNA formation)", "assay": "HBeAg reporter cell-based assay", "set-up": "species or system Hepatitis B virus", "conditions": "for Effect on secretion of HBeAg (in words): 3TC and ETV at 10 μM"}, "[3]": {"target": "HBV Cp149 (Hepatitis B virus genotype D subtype ayw, UniProt P03146)", "sequence (P03146 1-149)": "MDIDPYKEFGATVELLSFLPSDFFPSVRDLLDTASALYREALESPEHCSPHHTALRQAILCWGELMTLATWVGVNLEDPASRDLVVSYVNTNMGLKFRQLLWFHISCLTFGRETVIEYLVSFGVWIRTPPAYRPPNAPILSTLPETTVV", "assay": "HBV Cp149 capsid formation by negative-stain electron microscopy", "type": "biochemical", "conditions": "20 μM, 1 hr pre-incubation, assembly induced with NaCl overnight"}, "[4]": {"conditions": "Hepatitis B virus, HePAD38, read-out: HBeAg Secretion EC90, HepAD38 cells, ELISA"}, "[5]": {"conditions": "read-out: HBeAg Secretion EC90, HepAD38 cells, ELISA"}}, "note": "Like-named read-outs stand apart in the source and are kept apart here.", "data": [{"molecule": "Nc1ccn([C@@H]2CS[C@H](CO)O2)c(=O)n1", "note": "[Compound 3TC, lamivudine, reference compound]", "values": [{"measurement": "EC50", "setting": "[1]; Hepatitis B virus, HePAD38, read-out: HBV DNA – Extracellular EC50", "result": "40 ± 30", "unit": "nM"}, {"measurement": "Effect on secretion of HBeAg (in words)", "setting": "[2]; HepAD38 cells", "result": "no effect"}]}, {"molecule": "O=C(Nc1ccc(F)c(F)c1)c1cc(S(=O)(=O)NC2CCCC2)ccc1F", "note": "[Compound 4a, 5-(N-Cyclopentylsulfamoyl)-N-(3,4-difluorophenyl)-2-fluorobenzamide]", "values": [{"measurement": "EC90", "setting": "[2]; [4]", "result": "3000 to 4000", "unit": "nM"}, {"measurement": "EC90", "setting": "[2]; [5]", "result": "4600 ± 2000", "unit": "nM"}, {"measurement": "Effect on HBV Cp149 capsid formation (morphology, negative-stain TEM)", "setting": "[3]", "result": "form greater numbers of disfigured circular assemblies"}]}, {"molecule": "O=C(Nc1ccc(F)c(F)c1)c1cc(S(=O)(=O)N2CC(F)(F)C2)ccc1F", "note": "[Compound 4f, 5-((3,3-Difluoroazetidin-1-yl)sulfonyl)-N-(3,4-difluorophenyl)-2-fluorobenzamide]", "values": [{"measurement": "EC90", "setting": "[2]; [4]", "result": "3000 to 4000", "unit": "nM"}, {"measurement": "EC90", "setting": "[2]; [5]", "result": "3200 ± 10", "unit": "nM"}, {"measurement": "Effect on HBV Cp149 capsid formation (morphology, negative-stain TEM)", "setting": "[3]", "result": "a large number of incomplete, but typically spherical capsids aggregated into clusters"}]}, {"molecule": "O=C(Nc1cc(S(=O)(=O)NC2CCCC2)ccc1F)c1ccc(F)c(F)c1", "note": "[Compound 16, N-(5-(N-Cyclopentylsulfamoyl)-2-fluorophenyl)-3,4-difluorobenzamide]", "values": [{"measurement": "Anti-HBV activity (in words)", "setting": "[1]", "result": "complete loss of activity"}]}, {"molecule": "O=C(NC1(c2ccc(F)c(F)c2)CC1)c1cc(S(=O)(=O)NC2CCCC2)ccc1F", "note": "[Compound 19, 5-(N-Cyclopentylsulfamoyl)-N-(1-(3,4-difluorophenyl)cyclopropyl)-2-fluorobenzamide]", "values": [{"measurement": "Anti-HBV activity (in words)", "setting": "[1]", "result": "complete loss of activity"}]}, {"molecule": "CC(C)(NC(=O)c1cccc(S(=O)(=O)NC2CCCC2)c1)c1ccc(F)c(F)c1", "note": "[Compound 21, 3-(N-Cyclopentylsulfamoyl)-N-(2-(3,4-difluorophenyl)propan-2-yl)benzamide]", "values": [{"measurement": "Anti-HBV activity (in words)", "setting": "[1]", "result": "complete loss of activity"}, {"measurement": "Effect on HBV Cp149 capsid formation (morphology, negative-stain TEM)", "setting": "[3]", "result": "properly formed HBV Cp149 capsids"}]}, {"molecule": "C=C1[C@H](CO)[C@@H](O)C[C@@H]1n1cnc2c(=O)[nH]c(N)nc21.O", "note": "[ETV, entecavir]", "values": [{"measurement": "Effect on secretion of HBeAg (in words)", "setting": "[2]; HepAD38 cells", "result": "no effect"}]}, {"molecule": "CCOC(=O)C1=C(CN2CCOCC2)NC(c2nccs2)=NC1c1ccc(F)cc1Br", "note": "(stereo not shown) [GLS-4]", "values": [{"measurement": "Effect on secretion of HBeAg (in words)", "setting": "[2]; HepAD38 cells", "result": "reduced secretion of HBeAg"}, {"measurement": "EC90", "setting": "[2]; [4]", "result": 2000, "unit": "nM"}, {"measurement": "EC90", "setting": "[2]; [5]", "result": "1900 ± 40", "unit": "nM"}]}]}
